Legend:
[1] = tested on: Human Embryo Kidney (HEK) 293 cells; experiment: Hypothermia/rewarming injury of HEK cells, trypan blue viability count; assay type: cell-based; details: for viability at 0.01 µM / viability at 0.1 µM / viability at 1 µM / viability at 10 µM / viability at 100 µM / viability at 1000 µM: Homo sapiens, HEK293, 24 h, read-out: % cells that survived; for viability at 0.01 µM / viability at 0.1 µM / viability at 1 µM / viability at 10 µM / viability at 100 µM / viability at 1000 µM / % cells that survived: 24 h at 4° C., 24 h rewarming; for % cells that survived, Mean: mean over the tested concentrations
porcine hearts = experiment: Cold ischemic tolerance of porcine hearts, reperfusion in PhysioHeart platform; design: species or system pig
From the text: This example studies if SUL 109 as additive to standard heart transplantation protocols will help to prolong the maximal cold ischemic protection of porcine hearts. For long term arrest, for example in case of transplantation, a commonly used solution is CUSTODIOL®. With CUSTODIOL® solution it is possible to keep a heart in a cold ischemic state for up to six hours before reperfusion with warm oxygenated blood is necessary.
Two hearts were harvested from slaughterhouse pigs and treated as follows. […] After exsanguinations the sternum was quickly opened and the heart and lungs were removed as a whole. The heart was immediately submersed in an ice cold bath and the aorta was cut proximal to the brachocephalic side branches. A 19 mm cannula was inserted in the aorta and tied off. The carefully de-aired cannulla was used to retrogradely administer cold cardioplegic solution. In the first heart, 2 liters of standard CUSTODIOL® with 5000 IU/1 of heparin added was administered. The second heart was administered 2 liters of CUSTODIOL® with 5000 IU/1 of heparin and 10 ml/l of SUL 109 in 0.9% NaCl at 75 μM. Both hearts were stored in plastic bags filled with the same solutions and transported to the lab on ice at approximately 4° C. Before preparation the hearts were stored at 4° C. for 24 hours. The next day both hearts were prepared to be mounted in the PhysioHeart platform as described in DeHart et al 2011. After de-airing the hearts, retrograde reperfusion of the aorta was started with warm oxygenated blood at 38° C. Both flow of blood and pressure at the aortic root were registered during the experiment.

blood platelets = experiment: Cold storage of PRP blood platelets, aggregation of thrombocytes after storage; assay type: cell-based; design: key: − means that most of the thrombocytes were aggregated; a + indicates that a few cells were still viable but some cells aggregated; a ++ indicates that almost all cells were viable; details: 30 mM; PRP platelets stored at 4° C.; 264 hours
Protocol: PRP platelets were harvested and 2.1 ml was suspended in Poly Propylene tubes of 5 ml, closed with a stop.
Several compounds according to the invention were added to the blood platelets directly after preparing the PRP plasma and incubated during 10 minutes at 37° C. or 30 minutes at room temperature. The blood platelets with the compound were then stored at 4° C.
A control was stored under shaking conditions at room temperature. Another control was stored at 4° C. without the addition of a compound.
A sample was taken out of each tube after 264 hours after addition of the compound and tested as follows: • The color and coagulation properties were visually analysed. • The thrombocyte cells that survived were counted and it was evaluated whether the thrombocytes were aggregated. • It was evaluated if the thrombocytes still were able to function after stimulation by the addition of ADP or under influence of collagen in a 96 well plate. • The adhesion was evaluated, meaning the ability of the platelets to bind collagen in a 6 well plate preincubated with collagen. • Via an ELISA assay, it was evaluated whether thromboxane was secreted from the platelets. Thromboxane facilitates aggregation and is produced by activated blood platelets.
Table 3 provides an overview of the results of the addition of the compounds to the blood platelets and evaluates the aggregation of the thrombocytes after addition of the compound according to the invention and cooling until 4° C.

[2] = at reperfusion after 24 hours at 4° C., vs. non treated heart

Row | Compound | viability at 0.01 µM ([1]; 10 nM) | viability at 0.1 µM ([1]; 100 nM) | viability at 1 µM ([1]; 1 μM) | viability at 10 µM ([1]; 10 μM) | viability at 100 µM ([1]; 100 μM) | viability at 1000 µM ([1]; 1 mM) | % cells that survived, Mean [1] | contraction after defibrillation shocks (porcine hearts; at reperfusion after 24 hours at 4° C.) | contractile activity (porcine hearts; [2]) | vascular resistance (porcine hearts; [2]) | coronary flow (porcine hearts; perfusion pressure of 80 mmHg, reperfusion after 24 hours at 4° C.) | contractive activity of the myocardial tissue (porcine hearts; treated vs. non-treated heart) | Aggregation of blood platelets after storage (blood platelets) | % cells that survived ([1]; 10 nM) | % cells that survived ([1]; 100 nM) | % cells that survived ([1]; 1 μM) | % cells that survived ([1]; 10 μM) | % cells that survived ([1]; 100 μM) | % cells that survived ([1]; 1 mM)
1 | Cc1c(C)c2c(c(C)c1O)CCC(C)(C(=O)N1CCN(CCO)CC1)O2 (centres unmarked) [SUL - 109, (6-hydroxy-2,5,7,8-tetramethylchroman-2-yl)(4-(2-hydroxyethyl)piperazin-1-yl)methanone] | 92.6% | 98% | 97% | 94.9% | 93.7% | 87.4% | 94% | weak contractive unpaced pattern | more contractile activity compared to the non treated one | lower vascular resistance | 1 lpm | improved regular contractive activity | – | – | – | – | – | – | –
2 | CCCCNCC1(C)CCc2c(C)c(O)c(C)c(C)c2O1 (centres unmarked) [SUL - 117, 2-((butylamino)methyl)-2,5,7,8-tetramethylchroman-6-ol] | 0.72% | 89.3% | 93.6% | 84.8% | 90.1% | 0% | 60% | – | – | – | – | – | + | – | – | – | – | – | –
3 | Cc1c(C)c2c(c(C)c1O)CCC(C)(C(=O)N1CCC[C@H]1C(=O)O)O2 (single isomer, unassigned) [SUL - 145] | – | – | – | – | – | – | 40% | – | – | – | – | – | + | 12.99% | 28.68% | 21.43% | 7.84% | 78.61% | 88.08%
4 | Cc1c(C)c2c(c(C)c1O)CCC(C)(C(=O)N1CCNCC1)O2 (centres unmarked) [SUL - 121, (6-hydroxy-2,5,7,8-tetramethylchroman-2-yl)(piperazin-1-yl)methanone] | 87.3% | 89% | 94.8% | 88.9% | 92.7% | 0% | 75% | – | – | – | – | – | + | – | – | – | – | – | –
5 | Cc1c(C)c2c(c(C)c1O)CC[C@@](C)(C(=O)NO)O2 [SUL - 126, (S)-N,6-dihydroxy-2,5,7,8-tetramethylchroman-2-carboxamide] | 0% | 0% | 68.1% | 92.7% | 98.6% | 80.2% | 57% | – | – | – | – | – | + | – | – | – | – | – | –
6 | Cc1c2c(c(C(C)C)c(O)c1C(C)C)CCC(C)(C(=O)O)O2 (centres unmarked) [SUL - 118, 6-hydroxy-5,7-diisopropyl-2,8-dimethylchroman-2-carboxylic acid] | 13.7% | 45.7% | 36.2% | 52.9% | 88.5% | 92.5% | 55% | – | – | – | – | – | + | – | – | – | – | – | –
7 | Cc1c(C)c2c(c(C)c1O)CC[C@](C)(C(=O)N1CCN(CC(=O)O)CC1)O2 [SUL - 142, (R)-2-(4-(6-hydroxy-2,5,7,8-tetramethylchroman-2-carbonyl)piperazin-1-yl)acetic acid] | 0% | 73% | 98.5% | 99.2% | 99.4% | 91.9% | 77% | – | – | – | – | – | ++ | – | – | – | – | – | –
8 | Cc1c2c(c(C(C)C)c(O)c1C(C)C)CCC(C)(C(=O)N1CCN(CC(=O)O)CC1)O2 (centres unmarked) [SUL - 139, 2-(4-(6-hydroxy-5,7-diisopropyl-2,8-dimethylchroman-2-carbonyl)piperazin-1-yl)acetic acid] | 13.3% | 4.57% | 4.26% | 90% | 89.7% | 80.3% | 47% | – | – | – | – | – | + | – | – | – | – | – | –

From patent US11006626B2, “Compounds for protection of cells” (Sulfateq B.V., priority 2012, dated 2021)
